Several values for one entry are separate records, joined by “and”; a condition that tells them apart may be missing. Equal values may be shown once. Inconclusive results and toxic doses are left out. No stated cut-off is given here; in the data, active means T/C of 150% or more; inactive means T/C below 125%.
Test system: L1210 leukemia ip in BDF1 mice, survival T/C
Assay: NCI In Vivo Anticancer Drug Screen. Data for tumor model L1210 Leukemia (intraperitoneal) in B6D2F1 (BDF1) mice
Conditions: endpoint: mean survival time, higher = longer survival
Summary of the method: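 Antitumor effect is assessed in tumor-bearing animals. Survival in the compound arm is compared with a vehicle-dosed control arm and expressed as their quotient.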

[1] = dose: 100.0 mg/kg/injection, schedule: Q01DX001 (ip), vehicle: saline
[2] = dose: 200.0 mg/kg/injection, schedule: Q01DX001 (ip), vehicle: saline
[3] = dose: 400.0 mg/kg/injection, schedule: Q01DX001 (ip), vehicle: saline
[4] = dose: 100.0 mg/kg/injection, schedule: Q01DX001 (ip), vehicle: saline with Tween-80
[5] = dose: 200.0 mg/kg/injection, schedule: Q01DX001 (ip), vehicle: saline with Tween-80
[6] = dose: 100.0 mg/kg/injection, schedule: Q04DX003 (ip), vehicle: saline with Tween-80
[7] = dose: 200.0 mg/kg/injection, schedule: Q04DX003 (ip), vehicle: saline with Tween-80
[8] = dose: 400.0 mg/kg/injection, schedule: Q04DX003 (ip), vehicle: saline with Tween-80
[9] = dose: 100.0 mg/kg/injection, schedule: Q01DX009 (ip), vehicle: saline with Tween-80
[10] = dose: 200.0 mg/kg/injection, schedule: Q01DX009 (ip), vehicle: saline with Tween-80
[11] = dose: 400.0 mg/kg/injection, schedule: Q01DX009 (ip), vehicle: saline with Tween-80
[12] = dose: 100.0 mg/kg/injection, schedule: Q04DX003 (ip), vehicle: Klucel (hydroxypropylcellulose) (HPC)
[13] = dose: 200.0 mg/kg/injection, schedule: Q04DX003 (ip), vehicle: Klucel (hydroxypropylcellulose) (HPC)
[14] = dose: 400.0 mg/kg/injection, schedule: Q04DX003 (ip), vehicle: Klucel (hydroxypropylcellulose) (HPC)
[15] = dose: 100.0 mg/kg/injection, schedule: Q04DX003 (ip), vehicle: saline
[16] = dose: 200.0 mg/kg/injection, schedule: Q04DX003 (ip), vehicle: saline
[17] = dose: 400.0 mg/kg/injection, schedule: Q04DX003 (ip), vehicle: saline
[18] = dose: 100.0 mg/kg/injection, schedule: Q01DX001 (ip), vehicle: carboxymethylcellulose (CMC)
[19] = dose: 200.0 mg/kg/injection, schedule: Q01DX001 (ip), vehicle: carboxymethylcellulose (CMC)
[20] = dose: 100.0 mg/kg/injection, schedule: Q04DX002 (ip), vehicle: Klucel (hydroxypropylcellulose) (HPC)
[21] = dose: 200.0 mg/kg/injection, schedule: Q04DX002 (ip), vehicle: Klucel (hydroxypropylcellulose) (HPC)

Measured: T/C

NC(=O)n1cncn1
inactive: [1] 90 % of control | dose: 100.0 mg/kg/injection, schedule: Q01DX009 (ip), vehicle: acetone 89 % of control | [2] 107 % of control | dose: 200.0 mg/kg/injection, schedule: Q01DX009 (ip), vehicle: acetone 100 % of control | [3] 100 % of control | dose: 400.0 mg/kg/injection, schedule: Q01DX009 (ip), vehicle: acetone 91 % of control

CC(C)(C)NC/C(=C\c1ccccc1)S(=O)(=O)c1ccccc1[N+](=O)[O-]
inactive: dose: 50.0 mg/kg/injection, schedule: Q01DX001 (ip), vehicle: saline with Tween-80 91 % of control | [4] 93 % of control | [5] 95 % of control

Cc1ccc2cccc(O)c2n1
inactive: dose: 12.5 mg/kg/injection, schedule: Q04DX002 (ip), vehicle: Klucel (hydroxypropylcellulose) (HPC) 94 % of control | dose: 25.0 mg/kg/injection, schedule: Q04DX002 (ip), vehicle: Klucel (hydroxypropylcellulose) (HPC) 88 % of control | dose: 50.0 mg/kg/injection, schedule: Q04DX002 (ip), vehicle: Klucel (hydroxypropylcellulose) (HPC) 102 % of control

CCOc1cc([N+](=O)[O-])c(OCC)cc1C#N
inactive: dose: 5.0 mg/kg/injection, schedule: Q01DX001 (ip), vehicle: other 106 % of control | dose: 10.0 mg/kg/injection, schedule: Q01DX001 (ip), vehicle: other 90 % of control | dose: 20.0 mg/kg/injection, schedule: Q01DX001 (ip), vehicle: other 93 % of control

CC(=O)Nc1cc(C(=O)O)cc(NC(C)=O)c1C
inactive: [6] 103 % of control | [7] 98 % of control | [8] 101 % of control

CCCCNC(C)(C)CSS(=O)(=O)O
inactive: dose: 50.0 mg/kg/injection, schedule: Q01DX009 (ip), vehicle: saline with Tween-80 97 % of control | [9] 109 % of control | [6] 96 % of control | [10] 103 % of control | [7] 96 % of control | [11] 103 % of control | [8] 96 % of control

CS(=O)c1ccc([N+](=O)[O-])cc1 (stereo not given)
inactive: [12] 98 % of control | [13] 104 % of control | [14] 105 % of control

OC12C3CCCC1CCCC2CCC3 (stereo not given)
inactive: dose: 100.0 mg/kg/injection, schedule: Q01DX009 (ip), vehicle: other 101 % of control | dose: 100.0 mg/kg/injection, schedule: Q01DX009 (ip), vehicle: saline sonified 103 % of control | [9] 110 % of control and 90 % of control | [12] 95 % of control and 106 % of control and 96 % of control | [15] 102 % of control | dose: 200.0 mg/kg/injection, schedule: Q01DX009 (ip), vehicle: other 94 % of control | dose: 200.0 mg/kg/injection, schedule: Q01DX009 (ip), vehicle: saline sonified 103 % of control | [10] 106 % of control and 89 % of control | [13] 108 % of control and 100 % of control and 96 % of control | [16] 102 % of control | dose: 400.0 mg/kg/injection, schedule: Q01DX009 (ip), vehicle: other 92 % of control | dose: 400.0 mg/kg/injection, schedule: Q01DX009 (ip), vehicle: saline sonified 92 % of control | [11] 95 % of control and 92 % of control | [14] 95 % of control and 104 % of control and 114 % of control | [17] 104 % of control

O=C(O)C(Oc1ccc(Cl)cc1)c1ccc(Cl)cc1 (stereo not given)
inactive: [12] 96 % of control | [13] 91 % of control

COc1c2ccccc2nc2ccccc12
inactive: [6] 93 % of control | [7] 91 % of control | [8] 95 % of control

[I][Bi]([I])[I]
inactive: dose: 50.0 mg/kg/injection, schedule: Q01DX001 (ip), vehicle: carboxymethylcellulose (CMC) 114 % of control | [18] 105 % of control | [1] 108 % of control | [19] 102 % of control | [2] 94 % of control | [3] 97 % of control

CCCCCC1(C)OCC(CCl)O1 (stereo not given)
inactive: dose: 222.0 mg/kg/injection, schedule: Q01DX Z (ip), vehicle: saline 107 % of control | dose: 333.0 mg/kg/injection, schedule: Q01DX Z (ip), vehicle: saline 97 % of control | dose: 500.0 mg/kg/injection, schedule: Q01DX Z (ip), vehicle: saline 89 % of control

CCCCCCC(CCC1CCCCC1)C(=O)O (stereo not given)
inactive: [4] 88 % of control | [5] 96 % of control | dose: 400.0 mg/kg/injection, schedule: Q01DX001 (ip), vehicle: saline with Tween-80 92 % of control

O=C(COc1ccc(Cl)c(Cl)c1)Nc1ccc[n+](Cc2ccc(S(=O)(=O)F)cc2Cl)c1
inactive: [9] 94 % of control

CSc1nnnn1-c1ccccc1
inactive: dose: 100.0 mg/kg/injection, schedule: Q04DX003 (ip), vehicle: acetone 100 % of control | [6] 102 % of control | [7] 100 % of control | dose: 400.0 mg/kg/injection, schedule: Q04DX003 (ip), vehicle: acetone 100 % of control

O=C(COc1ccc(Cl)c(Cl)c1)Nc1cccnc1
inactive: dose: 75.0 mg/kg/injection, schedule: Q01DX009 (ip), vehicle: Klucel (hydroxypropylcellulose) (HPC) 104 % of control | dose: 150.0 mg/kg/injection, schedule: Q01DX009 (ip), vehicle: Klucel (hydroxypropylcellulose) (HPC) 96 % of control | dose: 300.0 mg/kg/injection, schedule: Q01DX009 (ip), vehicle: Klucel (hydroxypropylcellulose) (HPC) 101 % of control

Nc1cc(Cl)c(Cl)cc1Cl
inactive: [6] 97 % of control | [7] 101 % of control | [8] 100 % of control

C(=N\N=C\c1cccs1)/c1cccs1
inactive: [6] 98 % of control | [7] 98 % of control | [8] 95 % of control

CCC(C)(O)CCCC(C)C (stereo not given)
inactive: [15] 97 % of control | [16] 100 % of control | [17] 92 % of control

CC1(C)OC2COC(c3[nH]nc(C(N)=O)c3Br)C2O1 (stereo not given)
inactive: dose: 100.0 mg/kg/injection, schedule: Q01DX005 (ip), vehicle: saline 104 % of control | dose: 200.0 mg/kg/injection, schedule: Q01DX005 (ip), vehicle: saline 96 % of control

CCN(CC)C(=O)c1ccccc1
inactive: [15] 103 % of control | [16] 110 % of control | [17] 105 % of control

CSc1cc2c(cc1NC(C)=O)C(=O)c1cc(F)ccc1-2
inactive: [18] 98 % of control | [19] 101 % of control | dose: 400.0 mg/kg/injection, schedule: Q01DX001 (ip), vehicle: carboxymethylcellulose (CMC) 95 % of control

COc1ccc(NC(=O)COc2ccc(C)cc2C)cc1
inactive: [20] 95 % of control | [21] 103 % of control | dose: 400.0 mg/kg/injection, schedule: Q04DX002 (ip), vehicle: Klucel (hydroxypropylcellulose) (HPC) 89 % of control

CC(=O)Nc1cc(N)cc(NC(C)=O)c1
inactive: dose: 50.0 mg/kg/injection, schedule: Q01DX009 (ip), vehicle: water 91 % of control | dose: 100.0 mg/kg/injection, schedule: Q01DX009 (ip), vehicle: water 103 % of control and 107 % of control | dose: 100.0 mg/kg/injection, schedule: Q04DX003 (ip), vehicle: water 100 % of control | dose: 200.0 mg/kg/injection, schedule: Q01DX009 (ip), vehicle: water 102 % of control and 103 % of control | dose: 200.0 mg/kg/injection, schedule: Q04DX003 (ip), vehicle: water 98 % of control | dose: 400.0 mg/kg/injection, schedule: Q01DX009 (ip), vehicle: water 93 % of control

c1ccc2c(c1)CC1Sc3ccccc3N=C21 (stereo not given)
inactive: [6] 103 % of control | [7] 95 % of control

CC(=O)NC1C(O)OC(COC(c2ccccc2)(c2ccccc2)c2ccccc2)C(O)C1O (stereo not given)
inactive: [1] 91 % of control | [2] 93 % of control | [3] 104 % of control

CC(=O)Oc1c2ccccc2c(OC(C)=O)c2[nH]c(-c3ccccc3)cc12
inactive: [12] 90 % of control | [13] 93 % of control | [14] 90 % of control

CCNS(=O)(=O)c1cccc(C(N)=S)c1
inactive: dose: 100.0 mg/kg/injection, schedule: Q01DX001 (ip), vehicle: gum acacia 103 % of control | dose: 200.0 mg/kg/injection, schedule: Q01DX001 (ip), vehicle: gum acacia 105 % of control | dose: 400.0 mg/kg/injection, schedule: Q01DX001 (ip), vehicle: gum acacia 106 % of control

O=S(=O)(/C=N\N=P(c1ccccc1)(c1ccccc1)c1ccccc1)c1ccccc1-c1ccccc1
inactive: [6] 109 % of control | [7] 98 % of control | [8] 93 % of control

CC1CCCCN1C(=O)c1ccccc1C(=O)O (stereo not given)
inactive: [20] 104 % of control | [21] 111 % of control

— PubChem BioAssay AID248 (DTP/NCI, 2004)
